# Source: paper PMC3877906, “Polypeptide Modulators of TRPV1 Produce Analgesia without Hyperthermia” (Marine Drugs, 2013)
# “Also recorded” adds a separate entry of the source.
# What was measured:
# TRPA1 = TRPA1 activity, oocyte electrophysiology or agonist-induced fluorescence readout; type: cell-based; conditions: concentrations of up to 2 μM; data not shown
# Description: (§1) The formalin test is a complex in vivo model of pain where TRPV1’s function is more integrative than perceptive. In the mouse, intraplantar injections of formalin produce a biphasic behavioral reaction. The molecular mechanisms underlying formalin-induced pain are based on tissue damage, non-specific activation of nociceptors and direct activation of TRPA1 receptors (measured in phase I) that drive the local neurogenic inflammation and CNS sensitization (measured in phase 2). APHC1 and APHC3 were tested on TRPA1 for inhibitory/activation effects.
# TRPV1 = test: low pH-induced TRPV1 receptor currents/activation; type: cell-based; conditions: pH 5.5
# Description: The residues responsible for APHC’s activity are not determined. […] These differences in pharmacology were expressed further in the in vivo results.
# ASIC3 = ASIC3 activity, oocyte electrophysiology or agonist-induced fluorescence readout; type: cell-based; conditions: concentrations of up to 2 μM; data not shown
# CD-1 mice [1] = conditions: 0.1 mg/kg, intravenous; ref [15],[16]; cited from earlier work
# Method: (§2) The hot plate test is a most simple for TRPV1 inhibitor characterization since TRPV1 play significant role in temperature sensation. Effect of APHC1 and APHC3 on thermal nociception at dose 0.1 mg/kg after intramuscular, intraperitoneal and intravenous administration was measured before. […] Here we assessed changes in thermal nociception to a noxious thermal stimuli elicited by different doses of APHC1 and APHC3 to determine minimal effective dose. Intravenous administration ...
# CD-1 mice [2] = test: hot plate test; type: in vivo, mouse
# Method: as §2, with “[…] Both polypeptides reached maximal effect at 0.1 mg/kg.” for “Intravenous administration ...”
# (§3) All experiments were performed in accordance with the recommendations in the “Principles of Laboratory Animal Care” and after approval by the Animal Care and Use Committee of the Branch of the IBCh RAS (Pushchino, Russia). Adult male CD-1 mice (Animal Breeding Facility Branch of Shemyakin-Ovchinnikov Institute of Bioorganic Chemistry, Russian Academy of Sciences, Pushchino, Russia) weighing 20–25 g were used. Animals were allowed to acclimate in the laboratory for at least five days. Mice were housed at room temperature (23 ± 2 °C) on a 12 h light–dark cycle with food and water available ad libitum. Polypeptides or vehicle was administered intravenously 15 min before testing.
# (§4) The significance of the data was determined by analysis of variance (ANOVA) followed by Tukey’s test. Data are presented as mean ± S.E.
# Sensitivity to a thermal stimulus was determined by hind paw withdrawal or licking latency using a Hot-Plate Analgesia Meter (Columbus Instruments, Columbus, OH, USA) at 55 °C.
# CD-1 mice [3] = test: core body temperature (rectal measuring); type: in vivo, mouse; conditions: for change in core body temperature: n = 7; for core body temperature, in words: rectal measuring, mice, vs saline
# Method: Admittedly, hyperthermia is considered a critical side effect of TRPV1 antagonists, so we assessed the effect of the polypeptides on body temperature. Polypeptides were administered intravenously at doses 0.1 mg/kg and 0.5 mg/kg, and rectal temperature was monitored (Figure 5a,b).
# as §3, §4
# The MLT1404 Rectal Temperature Probe and Chart Power Lab (ADInstruments Inc., Colorado Springs, CO, USA) was used to record body temperature. During recording, the animals were placed in a MLA5018 Rodent Restrainer (ADInstruments Inc., Colorado Springs, CO, USA). The adaptation period was 20 min. Core body temperature was recorded every minute for 20 min before and 100 min after test compound administration. AMG9810 was dissolved in DMSO and was injected intraperitoneally.
# CD-1 mice [4] = test: open-field locomotor activity test; type: in vivo, mouse; conditions: 0.1 mg/kg i.v.; vs saline; n = 9 per group; 3 min recording
# Description: We conducted multiple in vivo experiments to assess the biological effects of APHC1 and APHC3, acting via modulation of TRPV1, on temperature sensation and inflammation. Possible negative effects of investigated components on the central nervous system were first excluded. We evaluated APHC1/3 in open-field locomotor activity tests as compounds capable of reducing locomotor activity could misrepresent results of other behavioral tests (particularly in pain models). […] There was no significant effect detected for either polypeptide at a dose of 0.1 mg/kg i.v. (Figure 3a).
# All experiments were performed in accordance with the recommendations in the “Principles of Laboratory Animal Care” and after approval by the Animal Care and Use Committee of the Branch of the IBCh RAS (Pushchino, Russia). Adult male CD-1 mice (Animal Breeding Facility Branch of Shemyakin-Ovchinnikov Institute of Bioorganic Chemistry, Russian Academy of Sciences, Pushchino, Russia) weighing 20–25 g were used. […]
# The significance of the data was determined by analysis of variance (ANOVA) followed by Tukey’s test. […]
# Open-field activity was measured using a system that counts interruptions in a set of photo beams (OPTO—VARIMEX (Columbus Instruments, Columbus, OH, USA) and ATM3 Auto System using Auto-Track Version 4.2 software). Spontaneous locomotor activity was recorded for 3 min.
# CD-1 mice [5] = test: pain models in vivo, overall; parameters: species or system mouse; conditions: i.v.
# Method: as §3, §4
# CD-1 mice [6] = test: CFA-induced thermal hyperalgesia; type: in vivo, mouse; conditions: i.v., n = 9; for reversal of CFA-induced thermal hyperalgesia: 0.1-0.01 mg/kg (dose of this value not stated), 24 h after CFA, 53 °C; for CFA-induced thermal hyperalgesia, in words: 0.1-0.01 mg/kg, vs saline
# Description: CFA-induced thermal hyperalgesia depends on TRPV1 activation; this was shown in TRPV1-deficient mice and using TRPV1 antagonists. CFA-induced thermal hyperalgesia is a complex process where different inflammatory pathways acting via several mechanisms lower the TRPV1 temperature threshold and influence thermal sensitivity. CFA-treated mice developed thermal hyperalgesia in the injected paw, this manifested as a decrease in the latency to paw withdrawal in response to thermal stimuli (Figure 4c).
# as §3, §4
# Complete Freund’s adjuvant suspended in an oil/saline (1:1) emulsion, was injected into the plantar surface of the left hind-paw of mice (20 μL/paw). Control mice received 20 μL of saline (i.pl.). Injected paw withdrawal latencies in response to thermal stimulation (53 °C) were measured 24 h after CFA injection.
# CD-1 mice [7] = test: formalin test; type: in vivo, mouse; conditions: for formalin-induced response: 0.01 mg/kg; for inhibition of second phase of formalin test: 10.01–60 min; for effect on first phase of formalin test, in words / effect on second phase of formalin test, in words: vs saline
# Description: as §1, §3, §4
# Formalin (10 μL 2% in saline) was injected intradermally into the left hind paw. […] This test produces a distinct biphasic response. The total duration of paw flinching during the early phase (0–10 min) and late phase (10.01–60 min) were summed.
# [8] = i.v., 15 min before test, 55 °C, n = 9 per group, vs saline
Substance,agonistic/antagonistic activity at TRPA1 (TRPA1),"effect on low pH-induced TRPV1 activation, in words (TRPV1)",agonistic/antagonistic activity at ASIC3 (ASIC3),"paw withdrawal latency, hot plate, previous studies (CD-1 mice [1])","paw withdrawal latency, hot plate (CD-1 mice [2]; [8])","dose at which maximal effect is reached, hot plate (CD-1 mice [2]; i.v., 55 °C, n = 9)","core body temperature, in words (CD-1 mice [3])","travelled distance and rearing, open-field locomotor activity (CD-1 mice [4])",doses with antinociceptive and analgesic activity in vivo (CD-1 mice [5]),reversal of CFA-induced thermal hyperalgesia (CD-1 mice [6]),"CFA-induced thermal hyperalgesia, in words (CD-1 mice [6])",formalin-induced response (CD-1 mice [7]),"inhibition of second phase of formalin test (CD-1 mice [7]; 0.1 mg/kg i.v., n = 9)","effect on first phase of formalin test, in words (CD-1 mice [7]; 0.1 mg/kg i.v., n = 9)","effect on second phase of formalin test, in words (CD-1 mice [7]; 0.1 mg/kg i.v., n = 9)",further results
"APHC1: polypeptide modulator of TRPV1 from sea anemone Heteractis crispa; homologous to BPTI/Kunitz type serine-protease inhibitors; produced recombinantly in E. coli (GSICLEPKVVGPCTAYFRRFYFDSETGKCTVFIYGGCEGNGNNFETLRACRAICRA; left off: TRX, end not stated, cleaved)",neither agonistic nor antagonistic activity,unable to observe any effect,neither agonistic nor antagonistic activity,significantly prolonged paw withdrawal latency,Dose dependent inhibition of thermal nociception; also recorded: significantly increased paw withdrawal latency,0.1 mg/kg,did not cause hyperthermia; also recorded: significantly decreased core body temperature in both tested doses; also recorded: moderate decrease in core body temperature,did not significantly alter normal mouse behavior,0.01 to 0.1 mg/kg,~ 80%,Dose dependent inhibition of CFA-induced thermal hyperalgesia; also recorded: significantly reduced thermal hyperalgesia; also recorded: clearly dose-dependent,no significant influence,70%,significantly attenuated the first phase,significantly inhibited the second phase,"paw withdrawal latency, hot plate (CD-1 mice [2]; 0.001 mg/kg i.v., data not shown): did not prolong paw withdrawal latency; antinociception in hot plate test (CD-1 mice [2]; 0.01 mg/kg i.v., 55 °C, n = 9): produced antinociception; change in core body temperature (CD-1 mice [3]; 0.1 mg/kg i.v., in the 30 min after administration, stayed at this level): −0.8 °C; change in core body temperature (CD-1 mice [3]; 0.5 mg/kg i.v., at the end of data acquisition time): −2.1 °C; attenuation of first phase of formalin test (CD-1 mice [7]; 0.1 mg/kg i.v., 0–10 min, n = 9, ""39% of response""): 39%"
"APHC3: polypeptide from Heteractis crispa highly homologous to APHC1, differing in four of 56 amino acids; produced recombinantly in E. coli (GSICLEPKVVGPCTAYFPRFYFNSETGKCTPFIYGGCEGNGNNFETLRACRGICRA; left off: TRX, end not stated, cleaved)",neither agonistic nor antagonistic activity,inhibited acid-induced (pH 5.5) activation of the receptor,neither agonistic nor antagonistic activity,significantly prolonged paw withdrawal latency,Dose dependent inhibition of thermal nociception; also recorded: significantly increased paw withdrawal latency,0.1 mg/kg,did not cause hyperthermia; also recorded: modest hypothermic effect; also recorded: moderate decrease in core body temperature,did not significantly alter normal mouse behavior,0.01 to 0.1 mg/kg,34%,Dose dependent inhibition of CFA-induced thermal hyperalgesia; also recorded: significantly reduced thermal hyperalgesia,no significant influence,86%,did not affect the first phase of the response; also recorded: no significant effect on phase 1,almost completely blocked phase 2; also recorded: significantly inhibited the second phase,"change in core body temperature (CD-1 mice [3]; 0.1 mg/kg i.v., 60 min after administration): −0.6 °C; change in core body temperature (CD-1 mice [3]; 0.5 mg/kg i.v., not statistically significant): −0.4 °C"
